pIC50: −log10 of the molar value. Where two headings read alike, the source gives them in different places.
Columns and labels:
Format in all cases: biochemical
[1] = target: T1, human platelet 12-lipoxygenase (12-LOX) (Homo sapiens, UniProt P18054); test: Lipoxygenase UV-based inhibitor assay, 12-LOX; conditions: 10 µM AA, pH 8.0
T1 construct: His6 (N); made in house
T1 sequence (P18054 1-663): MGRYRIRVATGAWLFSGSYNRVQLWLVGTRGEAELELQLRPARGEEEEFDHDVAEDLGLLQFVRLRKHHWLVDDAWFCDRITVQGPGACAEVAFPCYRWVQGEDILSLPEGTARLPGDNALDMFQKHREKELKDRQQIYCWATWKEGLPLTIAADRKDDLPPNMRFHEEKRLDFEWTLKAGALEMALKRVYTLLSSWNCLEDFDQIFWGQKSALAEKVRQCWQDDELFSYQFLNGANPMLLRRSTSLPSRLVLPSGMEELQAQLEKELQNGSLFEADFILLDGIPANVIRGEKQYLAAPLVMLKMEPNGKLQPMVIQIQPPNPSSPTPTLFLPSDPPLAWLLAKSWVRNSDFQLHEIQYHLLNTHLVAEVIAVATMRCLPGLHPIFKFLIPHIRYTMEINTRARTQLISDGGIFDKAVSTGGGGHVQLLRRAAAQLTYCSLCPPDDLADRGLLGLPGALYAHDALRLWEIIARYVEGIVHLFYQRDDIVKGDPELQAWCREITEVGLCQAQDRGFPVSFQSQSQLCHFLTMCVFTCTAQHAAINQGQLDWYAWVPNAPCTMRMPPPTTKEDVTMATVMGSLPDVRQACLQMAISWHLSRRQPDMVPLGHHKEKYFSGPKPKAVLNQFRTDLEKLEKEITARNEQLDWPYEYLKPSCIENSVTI
Procedure: (§1) Human leukocyte 5-lipoxygenase was expressed as a non-tagged protein and used as a crude ammonium sulfate protein fraction, as published previously.
(§2) Inhibitor potencies were evaluated through use of the standard UV-based inhibitor assay. The initial rates were determined by following the formation of the conjugated diene product at 234 nm (ε = 25,000 M^−1 cm^−1) with a Perkin-Elmer Lambda 40 UV/Vis spectrophotometer at one substrate concentration and varying inhibitor concentrations. All reactions were 2 mL in volume and constantly stirred using a magnetic stir bar at room temperature (23°C), with the enzyme specific buffer conditions outlined in Table 1. The substrate used for the various isozymes was arachidonic acid (AA) for 5-LOX, 12-LOX, and 15-LOX-2 and linoleic acid (LA) for 15-LOX-1, where concentrations were quantitatively determined by allowing the enzymatic reaction to go to completion. IC50 values were obtained by determining the initial rate at various inhibitor concentrations and plotting them against inhibitor concentration, followed by a hyperbolic saturation curve fit. The data used for the saturation curves were performed in duplicate or triplicate, depending on the quality of the data. […] Inhibitors were stored at −20°C in DMSO. […] The solvent isotope effect of the inhibitor IC50 was investigated utilizing the same conditions and methods as stated above. The pH of the buffered D2O was determined as reported previously.

[2] = target: T2, human prostate epithelial 15-lipoxygenase-2 (15-LOX-2) (Homo sapiens, UniProt O15296); test: Lipoxygenase UV-based inhibitor assay, 15-LOX-2; conditions: 30 µM AA, pH 7.5
T2 construct: His6 (N); made in house
T2 sequence (O15296 1-676): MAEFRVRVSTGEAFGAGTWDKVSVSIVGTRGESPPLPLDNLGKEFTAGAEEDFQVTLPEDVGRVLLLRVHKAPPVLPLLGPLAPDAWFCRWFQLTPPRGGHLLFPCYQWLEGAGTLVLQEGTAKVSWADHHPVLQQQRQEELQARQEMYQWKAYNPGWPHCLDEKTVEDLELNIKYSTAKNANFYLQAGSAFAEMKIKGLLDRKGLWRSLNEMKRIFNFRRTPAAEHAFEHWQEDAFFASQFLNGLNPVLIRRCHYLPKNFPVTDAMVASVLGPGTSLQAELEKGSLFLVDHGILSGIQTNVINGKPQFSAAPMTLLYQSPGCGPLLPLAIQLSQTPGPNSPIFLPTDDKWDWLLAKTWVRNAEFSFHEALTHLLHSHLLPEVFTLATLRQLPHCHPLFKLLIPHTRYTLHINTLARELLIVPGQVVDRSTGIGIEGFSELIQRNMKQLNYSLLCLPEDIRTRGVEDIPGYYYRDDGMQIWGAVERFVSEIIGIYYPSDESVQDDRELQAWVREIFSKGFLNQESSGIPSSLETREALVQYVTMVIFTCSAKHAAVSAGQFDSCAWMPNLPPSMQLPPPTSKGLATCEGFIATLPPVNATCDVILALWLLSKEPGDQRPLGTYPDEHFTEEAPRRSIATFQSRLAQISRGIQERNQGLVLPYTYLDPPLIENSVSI
Procedure: as §1, §2

[3] = target: T3, Ovine COX-1 (Ovis aries, UniProt P05979); test: Cyclooxygenase assay (oxygen electrode), COX-1
T3 construct: purchased Cayman chemical 60100
T3 sequence (P05979 25-600): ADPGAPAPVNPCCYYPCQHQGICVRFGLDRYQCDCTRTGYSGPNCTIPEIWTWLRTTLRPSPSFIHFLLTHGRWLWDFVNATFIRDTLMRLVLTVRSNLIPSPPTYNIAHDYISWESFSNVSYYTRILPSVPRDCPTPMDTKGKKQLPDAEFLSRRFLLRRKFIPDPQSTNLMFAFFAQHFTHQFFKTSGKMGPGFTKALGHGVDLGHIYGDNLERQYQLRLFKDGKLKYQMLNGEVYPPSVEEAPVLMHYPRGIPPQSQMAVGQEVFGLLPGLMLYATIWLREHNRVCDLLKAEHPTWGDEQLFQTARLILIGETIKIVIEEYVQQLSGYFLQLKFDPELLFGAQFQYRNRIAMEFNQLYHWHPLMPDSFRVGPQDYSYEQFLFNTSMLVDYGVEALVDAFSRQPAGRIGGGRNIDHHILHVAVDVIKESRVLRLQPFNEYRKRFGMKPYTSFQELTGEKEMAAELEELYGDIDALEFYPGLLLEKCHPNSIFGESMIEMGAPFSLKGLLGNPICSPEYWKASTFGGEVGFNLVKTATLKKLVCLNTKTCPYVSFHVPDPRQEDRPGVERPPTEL
Procedure: Ovine COX-1 (Cat. No. 60100) and human COX-2 (Cat. No. 60122) were purchased from Cayman chemical. Approximately 2 µg of either COX-1 or COX-2 were added to buffer containing 100 µM AA, 0.1 M Tris-HCl buffer (pH 8.0), 5 mM EDTA, 2 mM phenol and 1 µM hematin at 37°C. Data was collected using a Hansatech DW1 oxygen electrode chamber, as described before. Inhibitor or vehicle were mixed with the respective COX in buffer within the electrode cell, the reaction was initiated by the addition of AA, followed by monitoring of rate of oxygen consumption. Ibuprofen, aspirin and indomethacin, and the carrier solvent, DMSO, were used as positive and negative controls, respectively.

[4] = 100 µM AA, pH 8.0, 37°C, oxygen consumption, read-out: COX-1 IC50

pIC50 [1] | pIC50 [2] | pIC50 [3, 4] | SMILES | pIC50 [3]
< 4.30 | < 4.30 | < 3.82 | CC(=O)N1CCN(c2ccc(NCc3ccc(-c4cccc(Cl)c4)o3)cc2)CC1 [Compound 13] | 
< 3.82 | 5.00 | < 3.82 | N#Cc1ccc(-c2ccc(CNc3ccc(N4CCCCC4)cc3)o2)cc1 [Compound 14] | 
< 3.82 | < 3.82 | < 3.82 | CC(=O)N1CCN(c2ccc(NCC3COC(Cn4ccnc4)(c4ccc(Cl)cc4Cl)O3)cc2)CC1 (stereo not shown) [ketaminazole (16), ketaminazole] | 
< 4.00 |  | < 4.30 | Cc1cc(C2CCCCC2)n(O)c(=O)c1 [ciclopirox, reference compound] | 
< 3.82 | < 3.82 | < 4.30 | CC(C)(C)OC(=O)N1CCN(c2ccc(NCc3ccc(-c4ccc(C#N)cc4)o3)cc2)CC1 [Compound 1] | 
< 3.82 | < 3.82 |  | CC[C@](O)(c1nnc(NCc2ccc3c(-c4ccc(F)cc4)cc(=O)oc3c2)o1)C(F)(F)F [setileuton, reference compound] | 

SMILES | pIC50 [1] | pIC50 [2] | pIC50 [3, 4] | pIC50 [3]
CC(=O)N1CCN(c2ccc(OCC3COC(Cn4ccnc4)(c4ccc(Cl)cc4Cl)O3)cc2)CC1 (stereo not shown) [ketoconazole, reference compound] | < 3.82 | < 3.82 |  | < 4.30

Reference: publication PMC3691235, “Discovery of a Novel Dual Fungal CYP51/Human 5-Lipoxygenase Inhibitor: Implications for Anti-Fungal Therapy” (PLoS ONE, 2013)
